From patent US20110135603A1, “INHIBITORS OF PHOSPHATIDYLINOSITOL 3-KINASE” (VERTEX PHARMACEUTICALS INCORPORATED, priority 2008, published 2011)
Read-outs that look alike come from different tables or passages of the source.

How the values were obtained:
[1] = Evaluation of Brain/Plasma Concentrations; format: in vivo; conditions: Sprague-Dawley rats; for concentration at 2 h: 10 mg/kg oral intragastric in 0.5% MC, two hours after administration; for Kp at 2 h: 10 mg/kg oral, two hours, average brain/plasma ratio based on data obtained for each animal
Experimental: Selected compounds of the invention were evaluated for their ability to cross the blood-brain barrier. Accordingly, a compound of the invention was administered to Sprague-Dawley rats [10 mg/kg as a 1 mg/mL 0.5% MC solution] via oral intragastric delivery. Two hours after compound administration, the rats were anaesthetized by intramuscular administration of a 2 mL/kg Ketamine/Rompun/Acepromazine cocktail and placed onto necropsy table. The abdominal cavity was then opened with a V-cut and 300 microliters of blood was drawn directly from left ventricle for plasma concentration analysis. The blood sample was stored on ice in a 1.5 mL Eppendorf tube (containing K2EDTA) and subsequently centrifuged for 2 minutes at 2000 rpm. After centrifugation, 110 microliters of plasma was transferred to a fresh tube and stored at −70° C. until analysis. The rat was perfused with cold saline (containing 50 IU of heparin) at 20 mL/min from an infusion pump through the left ventricle of the heart. Immediately after starting the perfusion, a small cut in the right atria was made so that heparinized saline would flow through the body. The perfusion was continued until the liver appeared pale in color (about 60 mL of cold saline). The brain was removed and placed on ice, blotted dry, weighed, placed in a tube, frozen with liquid nitrogen, and stored at −70° C. until further analysis was performed.
In order to determine compound concentration in the plasma, the blood sample was prepared by protein precipitation with addition of acetonitrile at a ratio of 1:4. After vortexing and centrifugation, the supernatant was analyzed by high performance liquid chromatography-tandem mass spectrometry in positive Atmospheric Pressure Chemical Ionization (APCI) ionization mode. The analysis was done using reverse-phase high performance liquid chromatography with a 5.0 μm Xterra C18 analytical column (2.1×50 mm). Mobile phase was consists of a mixture of 10 mM ammonium acetate and acetonitrile running in a 1.5 minutes linear gradient. Aliquots of the matrix were spiked with known concentrations of the compound of interest and an internal standard. Study samples were spiked with the internal standard alone. The calibration curve generally contains final concentrations in the control matrix of 1 to 5000 ng/mL. The calibration curve was analyzed and the instrument response (area counts for compound of interest/Area Counts for internal Standard) are used to generate a calibration curve. The instrument response for study samples were compared to the calibration curve and the concentration back-calculated from the curve.
In order to determine compound concentration in the brain, the brain sample was thawed to RT, and a 0.5 weight equivalent of water was added to the sample. The sample was then completely homogenized. Two to four volumes of acetonitrile were added to the brain homogenate, the homogenate mixed and the sample centrifuged to remove protein. Similar to the method used to obtain blood concentrations, an aliquot of the sample homogenate supernatant was injected onto an LC/MS/MS running a gradient suitable for detecting the compound of interest. The instrument response was compared to the instrument response from calibration samples of brain homogenate spiked with known concentrations of compound in order to determine the brain concentration.

[2] = target: PI3Kγ (Homo sapiens, UniProt P48736); experiment: PI3K Inhibition Assay (33P-ATP, PI(4,5)P2 substrate), PI3Kγ isoform; format: biochemical; conditions: 2 nM final enzyme, 3 μM ATP, 30 μM PI(4,5)P2; competitive tight binding Ki fit
Experimental: (§1) Using a Biomek FX from Beckman Coulter, 1.5 μL of each of ten 2.5-fold serial dilutions of a compound of the invention in 100% DMSO was added to an individual well (hereafter, “test well”) in a 96 well polystyrene plate [Corning, Costar Item No. 3697]. One test well also contained 1.5 μL of DMSO with no compound. […] Using a Titertek Multidrop, 50 μL of Reaction Mix [100 mM HEPES pH 7.5, 50 mM NaCl, 10 mM DTT, 0.2 mg/mL BSA, 60 μM phosphatidylinositol(4,5)bisphosphate diCl6 (PI(4,5)P2; Avanti Polar Lipids, Cat. No. 840046P) and PI3K isoform of interest (see Table 3 for isoform concentrations)] was added to each well. To initiate the reaction, 50 μL of ATP Mix [20 mM MgCl2, 6 μM ATP (100 μCi/μmole ^33P-ATP)] was added each well, followed by incubating the wells for 30 min. at 25° C. Final concentrations in each well were 50 mM HEPES 7.5, 10 mM MgCl2, 25 mM NaCl, 5 mM DTT, 0.1 mg/mL BSA, 30 μM PI(4,5)P2, 3 μM ATP, and the PI3K isoform of interest (see Table 3). Final compound concentrations in each well ranged from 10 μM to 1 nM.
(§2) After incubation, the reactions in each well were quenched by addition of 50 μL of stop solution [30% TCA/Water, 10 mM ATP]. Each quenched reaction mixture was then transferred to a 96 well glass fiber filter plate [Corning, Costar Item No. 3511]. The plate was vacuum-filtered and washed three times with 150 μL of 5% TCA/water in a modified Bio-Tek Instruments ELX-405 Auto Plate Washer. 50 μL of scintillation fluid was added to each well and the plate read on a Perkin-Elmer TopCount™ NXT liquid scintillation counter to obtain ^33P-counts representing inhibition values.
(§3) The value for the background well was subtracted from the value obtained for each test well and the data were fit to the competitive tight binding Ki equation described by Morrison and Stone, Comments Mol. Cell. Biophys. 2: 347-368, 1985.

[3] = target: PI3Kα (Homo sapiens, UniProt P42336); experiment: PI3K Inhibition Assay (33P-ATP, PI(4,5)P2 substrate), PI3Kα isoform; format: biochemical; conditions: 2 nM final enzyme, 3 μM ATP, 30 μM PI(4,5)P2; competitive tight binding Ki fit
Experimental: as §1, §2, §3

[4] = system: experimental autoimmune encephalomyelitis (EAE); experiment: Experimental autoimmune encephalomyelitis (EAE) mouse model of multiple sclerosis; format: in vivo; conditions: prophylactic administration, contrasted with animals administered vehicle alone
Excerpt: See, for example, Keszthelyi et al., Neurology, 1996, 47:1053-1059.

[5] = based on a density of rat plasma of 1.0 g/mL, read-out: Plasma Conc.
[6] = rat, brain, average of two or three animals, read-out: Brain Conc.

Chain of PI3Kγ (P48736 whole entry, species assumed, canonical isoform): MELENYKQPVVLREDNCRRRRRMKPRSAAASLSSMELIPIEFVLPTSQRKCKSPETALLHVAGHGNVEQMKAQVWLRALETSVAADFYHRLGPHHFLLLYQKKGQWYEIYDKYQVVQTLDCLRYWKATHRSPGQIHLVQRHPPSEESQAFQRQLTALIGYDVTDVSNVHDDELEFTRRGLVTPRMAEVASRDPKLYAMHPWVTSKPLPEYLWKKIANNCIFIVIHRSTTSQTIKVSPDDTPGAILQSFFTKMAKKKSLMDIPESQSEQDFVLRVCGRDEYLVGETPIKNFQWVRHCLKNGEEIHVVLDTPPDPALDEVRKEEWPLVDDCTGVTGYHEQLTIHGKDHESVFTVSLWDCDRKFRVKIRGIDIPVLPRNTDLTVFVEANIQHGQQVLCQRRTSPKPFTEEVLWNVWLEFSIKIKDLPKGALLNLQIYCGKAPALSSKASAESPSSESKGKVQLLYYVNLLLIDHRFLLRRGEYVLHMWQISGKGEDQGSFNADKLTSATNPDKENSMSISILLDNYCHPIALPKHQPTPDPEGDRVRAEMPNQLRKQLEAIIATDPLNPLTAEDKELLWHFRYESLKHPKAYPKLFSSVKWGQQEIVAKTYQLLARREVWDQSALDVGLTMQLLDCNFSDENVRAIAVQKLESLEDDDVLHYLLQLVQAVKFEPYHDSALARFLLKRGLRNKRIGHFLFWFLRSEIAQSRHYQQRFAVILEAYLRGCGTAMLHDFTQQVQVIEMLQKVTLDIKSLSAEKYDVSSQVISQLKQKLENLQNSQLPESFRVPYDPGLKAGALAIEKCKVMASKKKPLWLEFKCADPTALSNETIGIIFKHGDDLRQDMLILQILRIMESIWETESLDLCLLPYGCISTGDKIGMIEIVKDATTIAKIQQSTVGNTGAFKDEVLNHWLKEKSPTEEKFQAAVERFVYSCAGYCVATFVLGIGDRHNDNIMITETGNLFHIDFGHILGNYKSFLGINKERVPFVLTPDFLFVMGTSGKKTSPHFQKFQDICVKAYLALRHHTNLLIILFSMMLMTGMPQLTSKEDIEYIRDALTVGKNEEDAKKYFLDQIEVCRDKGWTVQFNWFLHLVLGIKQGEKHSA
Chain of PI3Kα (P42336 whole entry, species assumed, canonical isoform): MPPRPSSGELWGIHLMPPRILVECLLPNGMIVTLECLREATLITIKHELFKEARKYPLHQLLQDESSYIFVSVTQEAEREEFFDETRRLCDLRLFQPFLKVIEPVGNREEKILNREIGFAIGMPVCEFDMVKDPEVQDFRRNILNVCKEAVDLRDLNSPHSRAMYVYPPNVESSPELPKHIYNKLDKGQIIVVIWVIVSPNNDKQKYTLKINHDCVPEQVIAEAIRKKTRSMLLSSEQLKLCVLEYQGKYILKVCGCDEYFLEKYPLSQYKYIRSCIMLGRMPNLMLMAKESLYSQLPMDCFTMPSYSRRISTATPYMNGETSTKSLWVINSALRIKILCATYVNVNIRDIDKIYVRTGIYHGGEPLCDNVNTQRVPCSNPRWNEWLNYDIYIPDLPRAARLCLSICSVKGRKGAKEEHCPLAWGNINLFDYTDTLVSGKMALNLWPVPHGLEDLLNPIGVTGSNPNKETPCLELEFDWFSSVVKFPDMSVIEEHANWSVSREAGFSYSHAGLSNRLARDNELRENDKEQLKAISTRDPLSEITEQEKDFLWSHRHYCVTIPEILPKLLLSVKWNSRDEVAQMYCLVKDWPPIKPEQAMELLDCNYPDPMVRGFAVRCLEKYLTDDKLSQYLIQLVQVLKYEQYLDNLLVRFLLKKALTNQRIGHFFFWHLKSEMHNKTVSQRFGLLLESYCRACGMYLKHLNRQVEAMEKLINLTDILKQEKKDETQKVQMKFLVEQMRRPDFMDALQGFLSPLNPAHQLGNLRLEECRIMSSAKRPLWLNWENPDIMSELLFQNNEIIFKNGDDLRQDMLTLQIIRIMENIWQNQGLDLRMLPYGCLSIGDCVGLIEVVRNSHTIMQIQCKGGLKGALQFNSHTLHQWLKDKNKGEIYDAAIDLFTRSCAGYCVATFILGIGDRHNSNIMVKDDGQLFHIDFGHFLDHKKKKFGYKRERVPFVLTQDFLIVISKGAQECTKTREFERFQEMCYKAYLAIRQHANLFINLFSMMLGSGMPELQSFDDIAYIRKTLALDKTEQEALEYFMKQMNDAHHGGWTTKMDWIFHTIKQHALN
Chain of PI3Kα (P27986 whole entry partner, species assumed, canonical isoform): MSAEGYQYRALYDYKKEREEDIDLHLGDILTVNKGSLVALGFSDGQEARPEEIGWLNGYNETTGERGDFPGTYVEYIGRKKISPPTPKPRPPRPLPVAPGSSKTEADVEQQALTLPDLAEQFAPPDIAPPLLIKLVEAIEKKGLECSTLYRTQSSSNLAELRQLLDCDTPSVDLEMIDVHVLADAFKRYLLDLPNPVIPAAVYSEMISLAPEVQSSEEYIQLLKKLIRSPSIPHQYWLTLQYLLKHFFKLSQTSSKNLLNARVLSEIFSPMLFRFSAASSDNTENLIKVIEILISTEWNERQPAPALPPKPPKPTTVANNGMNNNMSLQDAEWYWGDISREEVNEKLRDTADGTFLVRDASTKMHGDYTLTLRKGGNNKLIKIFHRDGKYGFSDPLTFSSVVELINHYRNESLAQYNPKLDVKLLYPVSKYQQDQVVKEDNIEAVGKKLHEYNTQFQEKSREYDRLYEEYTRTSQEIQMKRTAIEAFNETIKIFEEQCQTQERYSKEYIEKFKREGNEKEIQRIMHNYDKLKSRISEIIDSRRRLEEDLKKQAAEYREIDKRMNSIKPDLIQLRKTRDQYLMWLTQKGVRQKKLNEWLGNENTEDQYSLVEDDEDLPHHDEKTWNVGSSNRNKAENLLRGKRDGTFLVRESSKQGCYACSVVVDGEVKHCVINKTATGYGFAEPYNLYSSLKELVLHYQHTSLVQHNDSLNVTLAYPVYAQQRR

| Structure (SMILES) | concentration at 2 h [1, 5] [ng/mL] | concentration at 2 h [1, 6] [ng/g] | Kp at 2 h ([1]; rat) | Ki [2] [nM] | Ki [3] [nM] | Effect on disease in EAE [4] |
| --- | --- | --- | --- | --- | --- | --- |
| CCCOCCNC(=O)Nc1nc2ccc(-c3cncc(C(F)(F)F)c3)nc2s1 [Compound 1, 1-(5-(5-(trifluoromethyl)pyridin-3-yl)thiazolo[5,4-b]pyridin-2-yl)-3-(2-propoxyethyl)urea] | 197 | 157 | 0.8 | 10 to 100 | 100 to 4000 |  |
| CCCOCCCNC(=O)Nc1nc2ccc(-c3cncc(C(F)(F)F)c3)nc2s1 [Compound 2] |  |  |  | 10 to 100 | 100 to 4000 |  |
| CC(C)OCCCNC(=O)Nc1nc2ccc(-c3cncc(C(F)(F)F)c3)cc2s1 [Compound 3, 1-(6-(5-(trifluoromethyl)pyridin-3-yl)benzo[d]thiazol-2-yl)-3-(3-isopropoxypropyl)urea] |  |  |  | 10 to 100 | 100 to 4000 |  |
| COCCCNC(=O)Nc1nc2ccc(-c3cncc(C(F)(F)F)c3)nc2s1 [Compound 10] | 985 | 662 | 0.7 | ≤ 10 | 10 to 100 | disease suppression |
| CCOCCCNC(=O)Nc1nc2ccc(-c3cncc(C(F)(F)F)c3)nc2s1 [Compound 11] | 210 | 55 | 0.3 | ≤ 10 | 100 to 4000 |  |
| CCNC(=O)Nc1nc2ccc(-c3cncc(C(F)(F)F)c3)nc2s1 [Compound 13] |  |  |  | ≤ 10 | 10 to 100 |  |
